Reference: US9050295B2, “Composition for treatment of tuberculosis” (ETH Zurich, priority 2007, dated 2015)

Target: EthR-VP16 binding to PethR (Mycobacterium bovis, UniProt Q7TVI1)
Type: cell-based, E. coli BL21(DE3)

Chain of EthR-VP16 binding to PethR (Q7TVI1 whole entry, looked up): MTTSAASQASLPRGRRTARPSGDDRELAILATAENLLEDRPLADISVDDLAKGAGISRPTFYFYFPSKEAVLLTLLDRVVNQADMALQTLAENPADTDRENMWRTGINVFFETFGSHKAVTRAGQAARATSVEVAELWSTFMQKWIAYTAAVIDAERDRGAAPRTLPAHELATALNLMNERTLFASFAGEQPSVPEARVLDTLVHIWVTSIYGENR

Question: For `CCCC(=O)OCCc1ccccc1` [2-Phenylethyl butyrate], which “green fluorescence (EthR-controlled GFP expression)” value is on record?
Answer: Its value is “adjustable green fluorescence”.
